This passage reports IC50 results from BindingDB's records for doi:10.1021/jm051056c (Targegen, 2007).

What is called IC50 is the concentration that inhibits the measured activity by half. A lower IC50 goes with inhibition by little substance.

The test concerns the target Phosphatidylinositol 4,5-bisphosphate 3-kinase catalytic subunit gamma isoform (Homo sapiens, UniProt P48736). Put plainly: Determination of PI3K Activity. Particulars: pH 7.4; 22 °C.

Phosphatidylinositol 4,5-bisphosphate 3-kinase catalytic subunit gamma isoform, sequence (P48736 whole entry, canonical isoform): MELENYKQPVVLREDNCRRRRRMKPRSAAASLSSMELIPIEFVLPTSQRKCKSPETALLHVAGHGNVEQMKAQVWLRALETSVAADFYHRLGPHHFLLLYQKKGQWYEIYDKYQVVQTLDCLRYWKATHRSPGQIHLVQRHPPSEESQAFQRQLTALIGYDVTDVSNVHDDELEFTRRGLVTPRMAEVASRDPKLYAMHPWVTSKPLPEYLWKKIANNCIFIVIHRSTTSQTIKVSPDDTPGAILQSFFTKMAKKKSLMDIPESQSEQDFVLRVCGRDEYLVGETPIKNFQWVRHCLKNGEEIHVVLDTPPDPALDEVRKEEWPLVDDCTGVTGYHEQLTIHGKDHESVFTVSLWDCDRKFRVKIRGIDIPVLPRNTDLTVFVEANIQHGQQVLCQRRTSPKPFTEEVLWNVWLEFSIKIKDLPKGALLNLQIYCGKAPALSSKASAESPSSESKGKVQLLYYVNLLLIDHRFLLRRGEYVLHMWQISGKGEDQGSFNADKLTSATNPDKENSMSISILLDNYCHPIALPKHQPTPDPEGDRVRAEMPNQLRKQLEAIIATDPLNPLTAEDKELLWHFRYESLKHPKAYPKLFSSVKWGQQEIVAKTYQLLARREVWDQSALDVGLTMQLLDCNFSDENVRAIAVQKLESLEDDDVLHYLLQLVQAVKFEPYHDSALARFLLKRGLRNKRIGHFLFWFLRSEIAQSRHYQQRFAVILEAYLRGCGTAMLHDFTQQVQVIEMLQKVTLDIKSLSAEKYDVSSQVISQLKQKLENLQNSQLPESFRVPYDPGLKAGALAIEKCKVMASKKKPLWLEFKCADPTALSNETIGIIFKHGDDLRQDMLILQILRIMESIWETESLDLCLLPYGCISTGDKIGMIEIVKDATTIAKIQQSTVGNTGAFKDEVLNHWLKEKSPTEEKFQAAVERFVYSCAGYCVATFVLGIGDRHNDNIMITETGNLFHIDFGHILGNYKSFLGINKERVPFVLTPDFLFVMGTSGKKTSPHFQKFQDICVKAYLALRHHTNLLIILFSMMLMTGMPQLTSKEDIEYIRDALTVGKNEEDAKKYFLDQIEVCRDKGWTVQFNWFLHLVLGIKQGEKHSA

`COc1cccc(-c2nc3nc(N)nc(N)c3nc2-c2cccc(OC)c2)c1` [6,7-bis(3-methoxyphenyl)pteridine-2,4-diamine] had an IC50 of 12.6 µM.
